“Also recorded” adds a separate entry of the source.
Tested on: pigs (fattening animals of the Piétrain×Danbred breed)
Assay: Tail biting (caudophagia) injury scoring in fattening pigs fed guanidinoacetic acid in the feed
Format: in vivo, pig (Sus scrofa domesticus)
Conditions: for Number of animals score 3 or 4: regardless of available space; for Number of animals with score 1 (without abnormalities) / Number of animals with score 2 (dry bite marks, not bleeding) / Number of animals with score 3 (bloody bite marks, moderate inflammation) / Number of animals with score 4 ((partial) loss, high-grade inflammation, large bleeding wounds) / Number of animals, total score 3 + 4: 96 animals
Source text: A total of 1440 pigs (fattening animals of the Piétrain×Danbred breed) were used.
From the 91st day of life, the experiment started with different dosage of different amounts of guanidinoacetic acid in the feed.
After 60 days of life, 1152 animals were selected for the continuation of the experiment: Here, conspicuously weak animals and animals with easily recognizable injuries to the tail or other body parts were not used.
In the subsequent fattening period, the pigs were kept in 72 pens of 16 animals each on concrete slats without bedding. A drawing of the experimental setup is shown with FIGS. 1 to 3. The slat width was 18 mm with a tread width of 80 mm. Feed was provided ad libitum by means of type RM 05 mash feeders from IBO Stalltechnik GmbH. The feed was supplied via floury feed.
For each experimental parameter, 6 pens of mixed-sex were housed. For an even distribution, the animals were first divided into 4 main groups 1, 2, 3 and 4 of 288 animals each. Then, from each main group, animals were divided into 3 subgroups A, B and C (SG A, SG B, SG C) of 96 animals each, and from each subgroup, animals were separated into 6 pens. Thus, there were 12 experimental parameters with 6 replications each and 16 animals per replication, corresponding to 1152 animals.
The 72 pens were divided into 6 sections in a stable. All 4 main groups were represented in each section, with a pen size assigned to each main group (see Table 1). The pen sizes of main groups 3 and 4 were realized by removing railings from the standard pen of 12 m^2. To realize the pen size of main group 2, a part of a 24 m^2 pen was reduced by a railing.
Feeding from 91 days of life was performed in 2 phases, which were identical across all 4 main groups.
For subgroups B and C, guanidinoacetic acid was added to the feed in amounts of 0.04 wt. % and 0.12 wt. %, respectively, relative to the solid feed.
A maximum of 2 failures occurred per experimental regime during the fattening phase. Here, the score was evaluated at the time of the failure.
Essential for an evaluation of the stand is the ratio of uninjured or only slightly injured animals to moderately and severely injured animals. Since dry, non-bloody bite marks result from a playful non-aggressive act, animals with score 2 were added to the non-injured animals. Harmful to animal welfare is considered to occur at score 3 and above, i.e., bloody bite marks, resulting from aggressive acts that are no longer playful. Therefore, for an evaluation, the numbers for scores 3 and 4 were added and the percentage of these animals relative to the total number of the respective experimental group was evaluated.

[1] = experiment B1: 0.04 wt. % GAA in feed, 0.75 m^2/animal
[2] = experiment B2: 0.04 wt. % GAA in feed, 0.9 m^2/animal
[3] = experiment B3: 0.04 wt. % GAA in feed, 1.5 m^2/animal
[4] = experiment B4: 0.04 wt. % GAA in feed, 2.25 m^2/animal
[5] = experiment C1: 0.12 wt. % GAA in feed, 0.75 m^2/animal
[6] = experiment C2: 0.12 wt. % GAA in feed, 0.9 m^2/animal
[7] = experiment C3: 0.12 wt. % GAA in feed, 1.5 m^2/animal
[8] = experiment C4: 0.12 wt. % GAA in feed, 2.25 m^2/animal
[9] = guanidinoacetic acid given orally to pigs

N=C(N)NCC(=O)O [guanidinoacetic acid, Guanidinoacetic acid]
Number of animals score 3 or 4 (0.04 wt. % GAA in feed, experiments B1 + B2 + B3 + B4 pooled, 384 animals): 36 | Injured animals (score 3 or 4) (0.04 wt. % GAA in feed, experiments B1 + B2 + B3 + B4 pooled, 384 animals, without supplementation 12.2%): 9.4% | Reduction of injured animals versus no supplementation (0.12 wt. % GAA in feed, 0.9 m^2/animal): almost halved the number of injured animals; also recorded: reduction of injured animals to almost half | Reduction of injured animals versus no supplementation (0.12 wt. % GAA in feed, 1.5 m^2/animal): more than halved; also recorded: reduction of injured animals to more than half | Number of animals score 3 or 4 (0.12 wt. % GAA in feed, experiments C1 + C2 + C3 + C4 pooled, 384 animals): 32 | Injured animals (score 3 or 4) (0.12 wt. % GAA in feed, experiments C1 + C2 + C3 + C4 pooled, 384 animals, without supplementation 12.2%): 8.3% | Number of animals with score 1 (without abnormalities) [1]: 41 | Number of animals with score 2 (dry bite marks, not bleeding) [1]: 41 | Number of animals with score 3 (bloody bite marks, moderate inflammation) [1]: 10 | Number of animals with score 4 ((partial) loss, high-grade inflammation, large bleeding wounds) [1]: 4 | Number of animals, total score 3 + 4 [1]: 14 | Injured animals (score 3 or 4) (experiment B1: 0.04 wt. % GAA in feed, 0.75 m^2/animal, without supplementation 15.6%): 14.6% | Number of animals with score 1 (without abnormalities) [2]: 50 | Number of animals with score 2 (dry bite marks, not bleeding) [2]: 36 | Number of animals with score 3 (bloody bite marks, moderate inflammation) [2]: 8 | Number of animals with score 4 ((partial) loss, high-grade inflammation, large bleeding wounds) [2]: 2 | Number of animals, total score 3 + 4 [2]: 10 | Injured animals (score 3 or 4) (experiment B2: 0.04 wt. % GAA in feed, 0.9 m^2/animal, without supplementation 14.6%): 10.4% | Number of animals with score 1 (without abnormalities) [3]: 54 | Number of animals with score 2 (dry bite marks, not bleeding) [3]: 36 | Number of animals with score 3 (bloody bite marks, moderate inflammation) [3]: 5 | Number of animals with score 4 ((partial) loss, high-grade inflammation, large bleeding wounds) [3]: 1 | Number of animals, total score 3 + 4 [3]: 6 | Injured animals (score 3 or 4) (experiment B3: 0.04 wt. % GAA in feed, 1.5 m^2/animal, without supplementation 11.5%): 6.3% | Number of animals with score 1 (without abnormalities) [4]: 55 | Number of animals with score 2 (dry bite marks, not bleeding) [4]: 35 | Number of animals with score 3 (bloody bite marks, moderate inflammation) [4]: 6 | Number of animals with score 4 ((partial) loss, high-grade inflammation, large bleeding wounds) [4]: 0 | Number of animals, total score 3 + 4 [4]: 6 | Injured animals (score 3 or 4) (experiment B4: 0.04 wt. % GAA in feed, 2.25 m^2/animal, without supplementation 7.3%): 6.3% | Number of animals with score 1 (without abnormalities) [5]: 40 | Number of animals with score 2 (dry bite marks, not bleeding) [5]: 43 | Number of animals with score 3 (bloody bite marks, moderate inflammation) [5]: 10 | Number of animals with score 4 ((partial) loss, high-grade inflammation, large bleeding wounds) [5]: 3 | Number of animals, total score 3 + 4 [5]: 13 | Injured animals (score 3 or 4) (experiment C1: 0.12 wt. % GAA in feed, 0.75 m^2/animal, without supplementation 15.6%): 13.5% | Number of animals with score 1 (without abnormalities) [6]: 52 | Number of animals with score 2 (dry bite marks, not bleeding) [6]: 36 | Number of animals with score 3 (bloody bite marks, moderate inflammation) [6]: 6 | Number of animals with score 4 ((partial) loss, high-grade inflammation, large bleeding wounds) [6]: 2 | Number of animals, total score 3 + 4 [6]: 8 | Injured animals (score 3 or 4) (experiment C2: 0.12 wt. % GAA in feed, 0.9 m^2/animal, without supplementation 14.6%): 8.3% | Number of animals with score 1 (without abnormalities) [7]: 56 | Number of animals with score 2 (dry bite marks, not bleeding) [7]: 35 | Number of animals with score 3 (bloody bite marks, moderate inflammation) [7]: 4 | Number of animals with score 4 ((partial) loss, high-grade inflammation, large bleeding wounds) [7]: 1 | Number of animals, total score 3 + 4 [7]: 5 | Injured animals (score 3 or 4) (experiment C3: 0.12 wt. % GAA in feed, 1.5 m^2/animal, without supplementation 11.5%): 5.2% | Number of animals with score 1 (without abnormalities) [8]: 55 | Number of animals with score 2 (dry bite marks, not bleeding) [8]: 35 | Number of animals with score 3 (bloody bite marks, moderate inflammation) [8]: 5 | Number of animals with score 4 ((partial) loss, high-grade inflammation, large bleeding wounds) [8]: 1 | Number of animals, total score 3 + 4 [8]: 6 | Injured animals (score 3 or 4) (experiment C4: 0.12 wt. % GAA in feed, 2.25 m^2/animal, without supplementation 7.3%): 6.3% | Behavioral abnormalities in the form of tail biting (caudophagia) compared to the untreated control group [9]: less behavioral abnormalities in the form of tail biting | Biting attacks on conspecifics compared to an untreated control group [9]: fewer biting attacks on conspecifics

From US11633373B2, “Method for reduction of behavioral disorders in pigs” (Alzchem Trostberg GmbH, priority 2020, dated 2023)
